Structures can show the parent of a compound that is named as a salt. Non-standard residues stand in square brackets, D forms with d. Residues, ends and D or L forms follow the SMILES beside them. Phe(2-Me) = Cc1ccccc1C[C@H](N)C(=O)O

One data set can be described thus: in vitro. The settings on record: human, plasma.
A short description of another data set: physchem. The settings on record: octan-1-ol/water, pH 7.4.

The fraction unbound is free concentration divided by total concentration. Read a high fraction unbound as weak binding. In the data set “in vitro” (PPB), `Cc1cccc(Nc2nc(NCc3ccco3)c3ccccc3n2)c1` showed a fraction unbound at 5 h of 0.0007.
Same read-out and setting: with `O=C(Nc1ccc(Cl)cc1)Nc1nnc(-c2ccncc2)s1` the figure was 0.0017.
On the same count and under the same terms, with `CCn1cc(CNC(=O)c2cc(-c3ccc(C)cc3)nc3ccc(Br)cc23)c(C)n1` the figure was 0.0011.
Usually logD stands for the decadic logarithm of the distribution of all forms, ionised or not, between an organic phase and buffer at a given pH. Read a low logD as lower lipophilicity. As for `CS(=O)(=O)c1ccc2c(c1)N(CCN1CCC(NCc3ccc4c(n3)NC(=O)CO4)CC1)C(=O)CO2`, the logD in “physchem” is -0.51. In “in vitro”, this compound gave a fraction unbound at 5 h of 0.145.
Taken in the same sequence, the figures for `CCS(=O)(=O)c1ccc2c(c1)N(CCN1CCC(NCc3ccc4c(n3)NC(=O)CO4)CC1)C(=O)CO2` were -0.11 and 0.304.
The like results for `O=C1COc2ccc(CNC3CCN(CCN4C(=O)COc5ccc(OC(F)(F)F)cc54)CC3)nc2N1` were, in that order, 1.82 and 0.0209.
The like results for `O=C1COc2ccc(CNC3CCN(CCN4C(=O)COc5ccc(-c6ccco6)cc54)CC3)nc2N1` were, in that order, 2.19 and 0.006.
Regarding `CC(C)Nc1nc(NCc2ccccc2)c2sccc2n1`, the logD in the data set “physchem” is 3.9. For the same compound, the fraction unbound at 5 h in “in vitro” is 0.0029.
The like results for `O=C(Nc1ccccc1F)NC1N=C(c2ccccc2)c2ccccc2NC1=O` (configuration not stated) were, in that order, 3.8 and 0.0262.
In the case of `CC(=O)Nc1ccc2ccn(-c3cc(NC4CC4)n4ncc(C#N)c4n3)c2c1`, the logD in “physchem” was 3.29. The compound also showed a fraction unbound at 5 h in the data set “in vitro” of 0.0139.
Take `Cc1cc(-c2cc(=O)[nH]c(NCc3cccc4ccccc34)n2)ccn1`: the fraction unbound at 5 h in “in vitro” (PPB) was 0.0025.
Turning to `Cc1ccc(C(=O)N(CCCN)[C@H](c2nc3cc(Cl)ccc3c(=O)n2Cc2ccccc2)C(C)C)cc1`, the logD in “physchem” was 2.88. This compound showed a fraction unbound at 5 h in the data set “in vitro” of 0.0081.
For the compound `CC(C)[C@H]1C(=O)N[C@H](CO)Cc2ccccc2N1C`, the logD in “physchem” turned out to be 2.03. Further, in “in vitro”, the fraction unbound at 5 h is 0.371.
In turn, `COc1ccc2c(O)cc(=O)n(Cc3ccc(-c4ccccc4-c4nn[nH]n4)cc3)c2c1` gave a fraction unbound at 5 h in “in vitro” (PPB) of 0.0011.
As to `CN(C)c1cc(NC(=O)Nc2cccc(Cl)c2)c2ccccc2n1`, the fraction unbound at 5 h in “in vitro” (PPB) is 0.0014.
The same measure, in the same setting: with `O=C(Nc1ccc(Cl)c(C(=O)Nc2cncs2)c1)c1cccc(Cl)c1` the figure was 0.002.
`Cc1ncc(NC(=O)c2cc(NC(=O)c3cccc(Cl)c3)ccc2Cl)s1` showed a fraction unbound at 5 h in the data set “in vitro” (PPB) of 0.002.
`O=C(Cc1ccc(OCc2ccccc2)cc1)NO` displayed a logD in the data set “physchem” of 1.92. The compound also gave a fraction unbound at 5 h in the data set “in vitro” of 0.0633.
The compound `COc1ccc(C[C@H](N)C(=O)N[C@@H](Cc2ccccc2C)C(N)=O)cc1` (H-Tyr(Me)-[Phe(2-Me)]-NH2) showed a fraction unbound at 5 h in “in vitro” (PPB) of 0.36.
Same read-out and setting: with `CCCCCCCC(=O)N[C@@H](CCN)C(=O)N[C@H](C(=O)N[C@@H](C)C(=O)N[C@H]1CCNC(=O)[C@H]([C@@H](C)O)NC(=O)[C@H](CCN)NC(=O)[C@H](CCN)NC(=O)[C@H](CC(C)C)NC(=O)[C@@H](Cc2ccccc2)NC(=O)[C@H](CCN)NC1=O)[C@@H](C)O` (HELM PEPTIDE1{[CCCCCCCC(=O)[*:2]].[Dab].T.A.[Dab].[Dab].[dF].L.[Dab].[Dab].T}$PEPTIDE1,PEPTIDE1,5:R3-11:R2$$$V2.0) the figure was 0.112; with `CCCCCCCC(=O)N[C@@H](CCN)C(=O)N[C@H](C(=O)N[C@@H](CCN)C(=O)N[C@H]1CCNC(=O)[C@H]([C@@H](C)O)NC(=O)[C@H](C)NC(=O)[C@H](CCN)NC(=O)[C@H](CC(C)C)NC(=O)[C@@H](Cc2ccccc2)NC(=O)[C@H](CCN)NC1=O)[C@@H](C)O` (HELM PEPTIDE1{[CCCCCCCC(=O)[*:2]].[Dab].T.[Dab].[Dab].[Dab].[dF].L.[Dab].A.T}$PEPTIDE1,PEPTIDE1,5:R3-11:R2$$$V2.0), 0.132; with `O[C@H](c1cc(C(F)(F)F)nc2c(C(F)(F)F)cccc12)[C@@H]1CCCCN1` [(R,S)-MEFLOQUINE], 0.0214.
The compound `CC(C)(C)c1ccc2c(c1)CC[C@H]2NC(=O)Nc1cccc2[nH]ncc12` [ABT-102] had a fraction unbound at 5 h in the data set “in vitro” (PPB) of 0.0022.
`COc1ccc2c(c1O)-c1cccc3c1[C@@H](C2)N(C)CC3` [APOCIDEINE] gave a fraction unbound at 5 h in “in vitro” of 0.062.
On to `CCOC(=O)[C@H](CCc1ccccc1)N[C@H]1CCc2ccccc2N(CC(=O)O)C1=O` [BENAZEPRIL], for which the fraction unbound at 5 h in the data set “in vitro” (PPB) is 0.0409.
On the same count and under the same terms, with `CC(C)C[C@H](NC(=O)[C@H](Cc1ccccc1)NC(=O)c1cnccn1)B(O)O` [BORTEZOMIB] the figure was 0.132; with `CCCC[C@H](NC(C)=O)C(=O)N[C@H]1CC(=O)NCCCC[C@@H](C(=O)O)NC(=O)[C@H](Cc2c[nH]c3ccccc23)NC(=O)[C@H](CCCN=C(N)N)NC(=O)[C@@H](Cc2ccccc2)NC(=O)[C@H](Cc2cnc[nH]2)NC1=O` [BREMELANOTIDE], 0.729.
The compound `[H]/N=C(/N)c1ccc(NCc2nc3cc(C(=O)N(CCC(=O)O)c4ccccn4)ccc3n2C)cc1` [DABIGATRAN] gave a fraction unbound at 5 h in “in vitro” (PPB) of 0.529.
In “in vitro”, `COc1ccc(OC)c(C(O)CN)c1` (configuration not stated) [DESGLYMIDODRINE] had a fraction unbound at 5 h of 0.78.
On to `CC(NCCC(c1ccccc1)c1ccccc1)c1ccccc1` (configuration not stated) [FENDILINE], for which, in the data set “in vitro” (PPB), the fraction unbound at 5 h was 0.0116.
For the compound `CC1=C(/C=C/C(C)=C/C=C/C(C)=C/C(=O)Nc2ccc(O)cc2)C(C)(C)CCC1` [FENRETINIDE], the fraction unbound at 5 h in “in vitro” (PPB) is 0.0019.
`COc1cc2ncn(-c3cc(OCc4ccccc4S(C)(=O)=O)c(C#N)s3)c2cc1OC` [GSK-319347A]: the unbound share (fraction unbound) at 5 h in “in vitro” (PPB) was 0.0111.
`Fc1ccc(-c2c3cccc(C(F)(F)F)c3nn2Cc2ccc(F)cc2Cl)cc1` [LXR-623] showed a fraction unbound at 5 h in the data set “in vitro” (PPB) of 0.0006.
On the same count and under the same terms, the value for `CN(Cc1cnc2nc(N)nc(N)c2n1)c1ccc(C(=O)N[C@@H](CCC(=O)O)C(=O)O)cc1` [METHOTREXATE] was 0.535; that for `COC(=O)/C=C/C(=O)O` [MONOMETHYL FUMARATE] was 0.139; that for `CN(CC(=O)O)NC(=O)C[C@H](N)C[C@@H](O)CN` [NEGAMYCIN] was 0.874.
In the data set “in vitro”, `Cc1ccnc2c1NC(=O)c1cccnc1N2C1CC1` [NEVIRAPINE] showed a fraction unbound at 5 h of 0.557.
As for `COc1ccc(-c2nc3ccc(C4=NNC(=O)CC4C)cc3[nH]2)cc1` (configuration not stated) [PIMOBENDAN], the unbound share (fraction unbound) at 5 h in the data set “in vitro” (PPB) was 0.11.
On the same count and under the same terms, the value for `CCOc1cc(CC(=O)N[C@@H](CC(C)C)c2ccccc2N2CCCCC2)ccc1C(=O)O` [REPAGLINIDE] was 0.009.
On to `COC(=O)N(C)c1c(N)nc(-c2nn(Cc3ccccc3F)c3ncccc23)nc1N` [RIOCIGUAT], for which the fraction unbound at 5 h in “in vitro” is 0.0854.
In the case of `CS(=O)(=O)c1ccc(C2=C(c3ccccc3)C(=O)OC2)cc1` [ROFECOXIB], the fraction unbound at 5 h in “in vitro” (PPB) is 0.069.
`Nc1ccc(S(=O)(=O)Nc2ccnn2-c2ccccc2)cc1` [SULFAPHENAZOLE]: in “in vitro” (PPB), the fraction unbound at 5 h is 0.0059.
With `CCN(CC)CCOc1ccc2c(c1)C(=O)c1cc(OCCN(CC)CC)ccc1-2` [TILORONE], the fraction unbound at 5 h in the data set “in vitro” (PPB) is 0.517.
Same read-out and setting: the value for `COc1cc(Cc2cnc(N)nc2N)cc(OC)c1OC` [TRIMETHOPRIM] was 0.339; that for `Cc1ccc(/C(=C\CN2CCCC2)c2ccccn2)cc1` [TRIPROLIDINE] was 0.645.
As for `O=C(O)[C@@H](c1ccc(OCc2ccc3ccccc3n2)cc1)C1CCCC1` [VELIFLAPON], the fraction unbound at 5 h in the data set “in vitro” (PPB) is 0.0015.
On to `C[C@@H](c1ncncc1F)[C@](O)(Cn1cncn1)c1ccc(F)cc1F` [VORICONAZOLE], for which the fraction unbound at 5 h in “in vitro” is 0.535.
